Test results reported in US20230271943A1, “COMPOUNDS AS DHODH INHIBITORS” (Nanjing Zenshine Pharmaceuticals Co., Ltd., priority 2020, published 2023).

How the values were obtained:
A/PR/8/34 (H1N1) strain = test: Antiviral CPE assay in MDCK cells, A/PR/8/34 (H1N1); type: cell-based; conditions: Influenza A virus, 120 h, 5 days, CCK-8, read-out: Activity of anti-A/PR/8/34 (H1N1) EC50
recombinant human DHODH = recombinant human DHODH (Homo sapiens, UniProt Q02127); test: Biochemical enzymatic assay (DCIP bleaching); conditions: DCIP absorbance 600 nm, 60 min RT
Protocol: The biochemical activity of DHODH was measured by the bleaching of the dye 2,6-dichlorophenolindophenol (DCIP) (Knecht W. et al., Biochem. Pharmacol. 1998, 56, 1259-1264). The assay was conducted in buffer containing 50 mM Tris, 150 mM KCI, and 0.1% Triton® X-100 (pH 8.0). 5 ng DHODH protein in 50 µL assay buffer was mixed in a well of 96-well clear assay plate (Corning Cat#3599) with 25 µL series concentration of inhibitor at room temperature for 30mins prior to adding 25 µL substrate solution (1 mM L-Dihydroorotic acid, 0.1 mM Decylubiquinone, 0.06 mM DCIP). After incubation at RT for 60mins, absorbance at 600 nm was obtained using a PerkinElmer multimode plate-reading spectrophotometer. Purified recombinant human DHODH was purchased from R&D systems (Catalog# 10062-DD-020), L-dihydroorotic acid (Sigma, D7128), decylubiquinone (Sigma, D7911), DCIP (Sigma, D1878) and other chemicals were purchased from Sigma-Aldrich.

MV-4-11 cells = test: MV-4-11 cell proliferation assay (CellTiter-Glo); type: cell-based; conditions: Homo sapiens, MV4-11, 72 h, read-out: MV-4-11 Cell Proliferation Assay IC50
Protocol: 5000 cells/well of MV-4-11 cells were seeded in IMDM 10% fetal calf serum (FBS, BI, Catalog#) in 96-well plates. The next day, cells were incubated with different concentrations of test compounds for 72 h. Cellular viability was analyzed using CellTiter-Glo® Luminescent Cell Viability Assay (Promega, #G7570) according to manufacturer’s instructions.

in vitro = conditions: dog
H7N9 strain = test: microbe, parasite or virus in culture; type: cell-based; conditions: Influenza A virus, H7N9, MDCK, 120 h, read-out: Anti-H7N9 EC50
ZIKV strain = test: microbe, parasite or virus in culture; type: cell-based; conditions: Zika virus, Vero, 72 h, read-out: Activity of anti-ZIKV EC50
H1N1(XJ49) strain = test: Antiviral CPE assay in MDCK cells, H1N1 (XJ49); type: cell-based; conditions: Influenza A virus, H1N1, 120 h, 5 days, CCK-8, read-out: anti-H1N1 (XJ49) EC50

recombinant human DHODH, sequence (Q02127 whole entry): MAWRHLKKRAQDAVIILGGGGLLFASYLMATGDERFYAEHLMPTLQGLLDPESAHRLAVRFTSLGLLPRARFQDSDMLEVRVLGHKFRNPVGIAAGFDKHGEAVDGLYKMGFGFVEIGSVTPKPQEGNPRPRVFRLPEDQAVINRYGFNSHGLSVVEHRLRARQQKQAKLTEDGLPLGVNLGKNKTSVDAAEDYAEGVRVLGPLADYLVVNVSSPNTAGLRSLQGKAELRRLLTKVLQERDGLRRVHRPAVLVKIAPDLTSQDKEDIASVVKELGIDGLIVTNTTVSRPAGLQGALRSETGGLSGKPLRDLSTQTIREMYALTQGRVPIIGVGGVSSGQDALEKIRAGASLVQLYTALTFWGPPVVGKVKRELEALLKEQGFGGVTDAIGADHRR

SMILES | EC50 (A/PR/8/34 (H1N1) strain) [nM] | IC50 (recombinant human DHODH) [nM] | IC50 (MV-4-11 cells) [nM] | CC50 (in vitro) [nM] | EC50 (H7N9 strain) [nM] | EC50 (ZIKV strain) [nM] | EC50 (H1N1(XJ49) strain) [nM]
CCn1c(CO)nn(-c2cc3c(cc2F)c(=O)c(-c2c(F)cccc2Cl)nn3C(C)C)c1=O [Compound 2, 3-(2-chloro-6-fluorophenyl)-7-(4-ethyl-3-(hydroxymethyl)-5-oxo-4,5-dihydro-1H-1,2,4-triazol-1-yl)-6-fluoro-1-isopropylcinnolin-4(1H)-one] | 64 | 97 | 0.09 | > 1000 |  |  | 
O=C1c2c(O)c(=O)ccn2N([C@@H]2c3ccccc3SCc3c2ccc(F)c3F)[C@@H]2COCCN12 [Baloxavir, reference compound] | 1.1 |  |  | 18 |  |  | 
CCn1c(CO)nn(-c2cc3c(C(C)C)nn(-c4c(F)cccc4Cl)c(=O)c3cc2F)c1=O [Compound 4, 2-(2-chloro-6-fluorophenyl)-6-(4-ethyl-3-(hydroxymethyl)-5-oxo-4,5-dihydro-1H-1,2,4-triazol-1-yl)-7-fluoro-4-isopropylphthalazin-1(2H)-one] | 23 | 11 | 0.9 | > 1000 | 14 | 0.37 | 5.7
CCC(CC)O[C@@H]1C=C(C(=O)O)C[C@H](N)[C@H]1NC(C)=O [Oseltamivir acid, reference compound] | […] |  |  | > 100 |  |  | 
CCn1c(CO)nn(-c2cc3c(cc2F)c(=O)c(-c2c(F)cccc2Cl)nn3C(C)C(F)(F)F)c1=O (stereo not shown) [Compound 1, 3-(2-chloro-6-fluorophenyl)-7-(4-ethyl-3-(hydroxymethyl)-5-oxo-4,5-dihydro-1H-1,2,4-triazol-1-yl)-6-fluoro-1-(1,1,1-trifluoropropan-2-yl)cinnolin-4(1H)-one] |  | 215 |  |  |  |  | 
